Read-outs that look alike come from different tables or passages of the source.
What was measured:
Colo205 cells = assay: Analysis of cell proliferation and viability; type: cell-based; conditions: Homo sapiens, read-out: IC50 value
human Itk kinase = molecular target: T1, human Itk kinase (Homo sapiens, UniProt Q08881); assay: Itk inhibition assay: radioactivity-based assay; type: biochemical; conditions: Ki(app)
T1 sequence (Q08881 1-620): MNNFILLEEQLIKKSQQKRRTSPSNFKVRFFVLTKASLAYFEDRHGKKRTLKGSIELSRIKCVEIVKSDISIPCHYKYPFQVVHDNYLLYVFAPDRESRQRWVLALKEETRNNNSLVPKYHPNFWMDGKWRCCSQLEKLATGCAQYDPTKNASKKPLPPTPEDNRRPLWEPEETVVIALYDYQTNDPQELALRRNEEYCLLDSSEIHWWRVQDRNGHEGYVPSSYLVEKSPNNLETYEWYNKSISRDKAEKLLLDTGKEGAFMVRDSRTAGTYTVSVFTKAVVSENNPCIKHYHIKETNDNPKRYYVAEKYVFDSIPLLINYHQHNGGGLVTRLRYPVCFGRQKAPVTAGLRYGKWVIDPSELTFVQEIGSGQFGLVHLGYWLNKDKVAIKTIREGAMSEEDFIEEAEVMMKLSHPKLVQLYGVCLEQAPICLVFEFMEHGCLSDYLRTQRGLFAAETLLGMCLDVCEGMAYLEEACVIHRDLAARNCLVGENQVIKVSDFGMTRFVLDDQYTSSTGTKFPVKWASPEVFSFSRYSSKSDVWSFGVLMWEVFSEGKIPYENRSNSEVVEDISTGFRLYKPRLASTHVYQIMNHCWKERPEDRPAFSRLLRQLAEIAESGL
Description: The compounds of the present invention were evaluated as inhibitors of human Itk kinase using a radioactivity-based assay. These compounds can also be evaluated using a spectrophotometric or alphascreen assay.
Assays were carried out in a mixture of 20 mM MOPS (pH 7.0), 10 mM MgCl2, 0.1% BSA and 1 mM DTT. Final substrate concentrations in the assay were 7.5 μM [γ-^33P]ATP (400 μCi ^33P ATP/μmol ATP, Amersham Pharmacia Biotech/Sigma Chemicals) and 3 μM peptide (SAM68 protein Δ332-443). Assays were carried out at 25° C. in the presence of 50 nM Itk. An assay stock buffer solution was prepared containing all of the reagents listed above, with the exception of ATP and the test compound of interest. 50 μL of the stock solution was placed in a 96 well plate followed by addition of 2 μL of DMSO stock containing serial dilutions of the test compound (typically starting from a final concentration of 50 μM with 2-fold serial dilutions) in duplicate (final DMSO concentration 2%). The plate was pre-incubated for 10 minutes at 25° C. and the reaction initiated by addition of 50 μL [γ-^33P]ATP (final concentration 7.5 μM).
The reaction was stopped after 10 minutes by the addition of 100 μL 0.2M phosphoric acid+0.01% TWEEN 20. A multiscreen phosphocellulose filter 96-well plate (Millipore, Cat no. MAPHNOB50) was pretreated with 100 μL 0.2M phosphoric acid+0.01% TWEEN 20 prior to the addition of 170 μL of the stopped assay mixture. The plate was washed with 4×200 μL 0.2M phosphoric acid+0.01% TWEEN 20. After drying, 30 μL Optiphase ‘SuperMix’ liquid scintillation cocktail (Perkin Elmer) was added to the well prior to scintillation counting (1450 Microbeta Liquid Scintillation Counter, Wallac).
Ki(app) data were calculated from non-linear regression analysis of the initial rate data using the Prism software package (GraphPad Prism version 3.0cx for Macintosh, GraphPad Software, San Diego Calif., USA).

JAK3 = molecular target: T2, JAK3 (Homo sapiens, UniProt P52333); assay: biochemical
T2 sequence (P52333 1-1124): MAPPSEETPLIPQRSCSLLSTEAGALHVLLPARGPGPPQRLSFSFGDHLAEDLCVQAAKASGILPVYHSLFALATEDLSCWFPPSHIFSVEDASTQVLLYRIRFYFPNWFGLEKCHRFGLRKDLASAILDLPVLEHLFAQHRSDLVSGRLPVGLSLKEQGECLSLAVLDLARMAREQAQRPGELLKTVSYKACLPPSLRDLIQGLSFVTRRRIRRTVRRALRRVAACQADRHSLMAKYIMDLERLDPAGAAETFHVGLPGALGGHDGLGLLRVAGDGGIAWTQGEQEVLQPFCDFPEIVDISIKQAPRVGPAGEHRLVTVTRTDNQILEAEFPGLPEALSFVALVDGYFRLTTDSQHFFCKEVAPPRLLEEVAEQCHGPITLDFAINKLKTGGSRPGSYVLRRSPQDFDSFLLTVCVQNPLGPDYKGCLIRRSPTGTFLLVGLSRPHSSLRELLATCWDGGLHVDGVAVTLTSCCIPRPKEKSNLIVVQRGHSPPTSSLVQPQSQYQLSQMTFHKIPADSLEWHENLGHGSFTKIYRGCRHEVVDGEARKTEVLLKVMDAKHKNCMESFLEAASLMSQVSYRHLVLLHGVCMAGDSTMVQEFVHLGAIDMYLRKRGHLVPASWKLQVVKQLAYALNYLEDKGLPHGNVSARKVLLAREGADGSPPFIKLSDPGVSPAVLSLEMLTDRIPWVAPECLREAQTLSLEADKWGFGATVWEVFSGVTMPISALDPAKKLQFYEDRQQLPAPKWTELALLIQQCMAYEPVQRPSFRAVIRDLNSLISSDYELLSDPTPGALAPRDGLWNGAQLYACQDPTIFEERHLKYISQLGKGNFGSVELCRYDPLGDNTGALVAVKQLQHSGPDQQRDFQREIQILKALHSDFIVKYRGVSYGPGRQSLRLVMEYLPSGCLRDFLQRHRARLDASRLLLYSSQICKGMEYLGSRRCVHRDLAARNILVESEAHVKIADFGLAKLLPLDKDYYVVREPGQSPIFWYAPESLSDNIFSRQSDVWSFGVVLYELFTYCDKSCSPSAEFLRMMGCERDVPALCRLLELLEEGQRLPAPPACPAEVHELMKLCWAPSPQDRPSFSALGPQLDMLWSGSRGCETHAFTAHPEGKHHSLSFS

Aurora-1 (Aurora B) = Aurora-1 (Aurora B) (Homo sapiens, UniProt Q96GD4); assay: Aurora-1 (Aurora B) inhibition assay (radiometric); type: biochemical; conditions: read-out: Aurora B kinase Ki value
In short: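 Radiometric ^33P incorporation into peptide substrate, with [γ-^33P]-ATP at 800 μM final, in 25 mM HEPES pH 7.5, 10 mM MgCl2, 0.1% BSA, 10% glycerol. Compound preincubated with enzyme for 10 min at 25° C, reaction run 3 h, then captured on phosphocellulose. Ki from initial rates by non-linear regression after background subtraction.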

FLT-3 = molecular target: T3, FLT-3 (Homo sapiens, UniProt P36888); assay: FLT-3 inhibition assay, radiometric filter-binding; type: biochemical
T3 sequence (P36888 27-993): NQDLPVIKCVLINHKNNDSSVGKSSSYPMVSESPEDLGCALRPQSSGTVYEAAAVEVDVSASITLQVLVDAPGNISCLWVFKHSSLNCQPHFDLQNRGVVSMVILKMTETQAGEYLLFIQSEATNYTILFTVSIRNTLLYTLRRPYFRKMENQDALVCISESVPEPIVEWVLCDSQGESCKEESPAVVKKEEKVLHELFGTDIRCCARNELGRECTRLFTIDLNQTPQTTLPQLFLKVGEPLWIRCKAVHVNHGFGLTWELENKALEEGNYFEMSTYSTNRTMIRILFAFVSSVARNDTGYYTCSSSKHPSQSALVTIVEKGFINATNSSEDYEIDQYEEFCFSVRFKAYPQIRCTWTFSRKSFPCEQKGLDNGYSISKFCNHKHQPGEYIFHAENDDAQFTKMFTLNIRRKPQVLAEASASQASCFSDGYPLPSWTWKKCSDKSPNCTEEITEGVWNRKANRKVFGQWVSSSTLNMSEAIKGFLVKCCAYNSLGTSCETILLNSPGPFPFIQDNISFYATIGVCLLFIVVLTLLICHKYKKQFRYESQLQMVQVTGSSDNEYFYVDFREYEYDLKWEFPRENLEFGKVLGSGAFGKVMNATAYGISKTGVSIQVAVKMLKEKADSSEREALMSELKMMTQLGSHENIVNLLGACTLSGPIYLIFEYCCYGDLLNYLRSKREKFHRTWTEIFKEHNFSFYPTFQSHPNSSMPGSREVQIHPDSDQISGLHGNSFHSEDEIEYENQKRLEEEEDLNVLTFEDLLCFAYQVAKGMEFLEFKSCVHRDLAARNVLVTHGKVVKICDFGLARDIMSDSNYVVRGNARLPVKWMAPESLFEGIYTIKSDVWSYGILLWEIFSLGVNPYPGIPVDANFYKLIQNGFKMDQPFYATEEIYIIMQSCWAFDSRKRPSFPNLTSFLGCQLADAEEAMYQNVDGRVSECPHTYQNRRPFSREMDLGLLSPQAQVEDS
Description: This assay monitors the 33P incorporation into a substrate poly(Glu, Tyr) 4:1 (pE4Y). […] Final substrate concentrations in the assay were 90 μM ATP and 0.5 mg/ml pE4Y (both from Sigma Chemicals, St. Louis, Mo.). […] Reactions were carried out at room temperature.
Two assay solutions were prepared. Solution 1 contains 100 mM HEPES (pH 7.5), 10 mM MgCl2, 25 mM NaCl, 1 mg/ml pE4Y and […] (containing 0.3 mCi of [γ-33^P]ATP for each reaction). Solution 2 contains 100 mM HEPES (pH 7.5), 10 mM MgCl2, 25 mM NaCl, 2 mM DTT, 0.02% BSA and 3 nM FLT-3. The assay was run on a 96 well plate by mixing 50 μl each of Solution 1 and […] of the compounds of the present invention. The reaction was initiated with Solution 2. […] All of the reaction volume was then transferred to a filter plate and washed with 5% TCA by a Harvester 9600 from TOMTEC (Hamden, Conn.). The amount of ^33P incorporation into pE4y was analyzed by a Packard Top Count Microplate Scintillation Counter (Meriden, Conn.). The data was fitted using Prism software to get an IC50 or Ki.

Aurora-2 (Aurora A) = molecular target: T4, Aurora-2 (Aurora A) (Homo sapiens, UniProt O14965); assay: Aurora-2 (Aurora A) inhibition assay, coupled enzyme; type: biochemical; conditions: read-out: Aurora A kinase Ki value
T4 sequence (O14965 1-403): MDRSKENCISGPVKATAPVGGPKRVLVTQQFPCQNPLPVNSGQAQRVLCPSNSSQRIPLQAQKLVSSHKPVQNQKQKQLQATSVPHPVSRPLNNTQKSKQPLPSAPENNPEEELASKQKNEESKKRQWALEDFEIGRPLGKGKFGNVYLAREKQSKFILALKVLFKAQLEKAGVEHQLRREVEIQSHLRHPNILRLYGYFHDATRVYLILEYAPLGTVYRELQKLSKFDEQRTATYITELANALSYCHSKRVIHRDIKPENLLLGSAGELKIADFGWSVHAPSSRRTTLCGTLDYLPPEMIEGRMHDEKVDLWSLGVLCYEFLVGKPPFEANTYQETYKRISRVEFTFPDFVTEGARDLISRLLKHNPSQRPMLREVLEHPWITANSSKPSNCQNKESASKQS
In short: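 Coupled pyruvate kinase/lactate dehydrogenase assay with NADH in pH 7.5 Hepes containing MgCl2, DTT and NaCl, using 40 nM Aurora-2 at 30 °C. After a 10 min preincubation, enzyme addition started the reaction, and initial rates were taken over 10 min. IC50 and Ki came from non-linear regression.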

[1] = COLO 205, Colo205 cells, incubated for 96 hours
[2] = COLO 205, Colo205 cells, incubated for 72 hours

Sequence of Aurora-1 (Aurora B) (Q96GD4 whole entry): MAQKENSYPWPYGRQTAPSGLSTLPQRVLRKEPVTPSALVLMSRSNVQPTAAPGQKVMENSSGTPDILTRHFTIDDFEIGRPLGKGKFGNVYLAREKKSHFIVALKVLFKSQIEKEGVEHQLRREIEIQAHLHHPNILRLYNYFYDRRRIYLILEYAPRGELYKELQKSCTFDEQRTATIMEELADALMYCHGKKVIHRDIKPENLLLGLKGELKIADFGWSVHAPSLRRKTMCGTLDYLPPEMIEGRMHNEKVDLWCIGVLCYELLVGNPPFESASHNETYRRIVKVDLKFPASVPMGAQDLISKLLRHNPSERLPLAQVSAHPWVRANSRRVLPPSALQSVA

Cc1cccc(C(=O)Nc2ccc(Sc3nc(Nc4cc(C)[nH]n4)cc(N4CCC4)n3)cc2)c1 [Compound 29]
IC50 (Colo205 cells; COLO 205, 96 h): 50 to 1000 nM | Ki (human Itk kinase): 100 to 1000 nM

Cc1cc(Nc2cc(N3CCC3)nc(Sc3ccc(NC(=O)c4ccccc4OC(F)(F)F)cc3)n2)n[nH]1 [Compound 34]
IC50 (Colo205 cells; COLO 205, 96 h): 50 to 1000 nM | Ki (human Itk kinase): 100 to 1000 nM

Cc1cc(Nc2cc(N3CCC3)nc(Sc3ccc(NC(=O)c4ccccc4C)cc3)n2)n[nH]1 [Compound 31]
IC50 (Colo205 cells; COLO 205, 96 h): 50 to 1000 nM | Ki (human Itk kinase): 100 to 1000 nM

Cc1cc(Nc2cc(N3CCC3)nc(Sc3ccc(NC(=O)c4cc(Cl)ccc4Cl)cc3)n2)n[nH]1 [Compound 163]
IC50 (Colo205 cells; [1]): 50 to 1000 nM | Ki (human Itk kinase): 100 to 1000 nM

Cc1cc(Nc2cc(CN3CCC3)nc(Sc3ccc(NC(=O)c4ccccc4C(F)(F)F)cc3)n2)[nH]n1 [Compound 132]
IC50 (Colo205 cells; [2]): > 200 nM | IC50 (Colo205 cells; [1]): 50 to 1000 nM | Ki (JAK3): 500 to 2000 nM | Ki (Aurora-1 (Aurora B)): 10 to 50 nM | Ki (FLT-3): 150 to 1000 nM

Cc1cc(Nc2cc(N3CC(N4CCOCC4)C3)nc(Sc3ccc4nc(C(F)(F)F)n(C)c4c3)n2)[nH]n1 [Compound 195]
IC50 (Colo205 cells; [2]): 30 to 200 nM | Ki (JAK3): 10 to 500 nM | Ki (Aurora-1 (Aurora B)): ≤ 10 nM | Ki (FLT-3): 150 to 1000 nM

Cc1cc(Nc2cc(N3CCC3)nc(Sc3ccc(N(C)C(=O)c4c(F)cccc4F)cc3)n2)n[nH]1 [Compound 11]
IC50 (Colo205 cells; [1]): 50 to 1000 nM | Ki (JAK3): 10 to 500 nM | Ki (Aurora-1 (Aurora B)): 50 to 2000 nM | Ki (FLT-3): 150 to 1000 nM

Cc1cc(Nc2cc(N3CC(F)(C4CC4)C3)nc(Sc3ccc4ccn(CC(F)(F)F)c(=O)c4c3)n2)[nH]n1 [Compound 189]
IC50 (Colo205 cells; [2]): > 200 nM | Ki (JAK3; read-out: JAK3 Ki value): 10 to 500 nM | Ki (Aurora-1 (Aurora B)): 50 to 2000 nM | Ki (FLT-3): 50 to 150 nM

Cc1cc(Nc2cc(N3CC(F)(C4CC4)C3)nc(Sc3ccc(NC(=O)[C@H]4CCCN4C(C)C)cc3)n2)[nH]n1 [Compound 193]
IC50 (Colo205 cells; [2]): > 200 nM | Ki (Aurora-2 (Aurora A)): 1 to 5 nM | Ki (Aurora-1 (Aurora B)): 50 to 2000 nM | Ki (FLT-3; read-out: FLT-3 Ki value): 150 to 1000 nM
